In this experiment the test system is HeLa and/or SH-SY5Y cells. Put plainly: Autophagic flux, RFP-EGFP-LC3 assay (fluorescent analysis, FIG. 1). The class given is cell-based. The note with it: compared to the growth media control. An excerpt:
Autophagic flux refers to a measure of autophagic degradation activity. FIG. 1 depicts the fluorescent analysis of the autophagic flux in the presence of 6-bromoindirubin oxime (6-BIO), 6-MIO, and compounds of Formula I—compounds ‘a’ and ‘m’. FIG. 1 depicts that both autophagosomes and autolysosomes are increased with the compounds of Formula I when compared to the growth media control.
The assays were essentially performed as follows: RFP-EGFP-LC3 assay: sub-confluent HeLa and/or SH-SY5Y cells were seeded into 60 mm cell culture dishes, then transfected with ptf LC3 construct and/or siRNA and allowed to express for 48 h. Cells were trypsinized, seeded again on poly-D-lysine coated cover slips in a 12 or 24 well plates and allowed to attach. After appropriate treatments, the coverslips containing cells were processed for imaging. For immunofluorescent antibody staining, the cover slips were incubated in primary antibody at 4° C. for overnight followed by secondary antibody incubation at room temperature. For imaging the mammalian cells, after appropriate treatments, coverslips containing cells were fixed using 4% paraformaldehyde (PFA; Sigma) and then permeabilized using Triton X-100 (0.2%, HiMedia). Coverslips were mounted on slide using antifade, Vectashield mounting medium (Vector Laboratories). Images were acquired using DeltaVision Elite widefieldmicroscope (API, GE) with following filters: FITC (490/20 and 529/38), TRITC (542/27 and 594/45) and Cy5 (632/22 and 676/34). Acquired images were processed using DV softWoRX software. In this standard assay, the autophagosomes would appear as yellow whereas autolysosomes would be red as EGFP gets quenched at lysosomal acidic pH6.

For the compound `O=C1Nc2cc(Br)ccc2/C1=C1/Nc2ccccc2/C1=N\O.[Li]` [a, (2Z,3E)-6′-bromo-3-(hydroxyimino)-[2,3′-biindolinylidene]-2′-one lithium salt], the autolysosomes entry is recorded as “increased” and the autophagosomes entry is given as “increased”.

Regarding `O=C1Nc2cc(Br)ccc2/C1=C1/Nc2ccccc2/C1=N\OCCO` [m, (2Z,3E)-6′-bromo 3-((2-hydroxyethoxy)imino)-[2,3′-biindolinylidene]-2′-one], the autolysosomes result is “increased” and the autophagosomes result is reported as “increased”.

The record behind these values is patent US20240228467A1, “INDIRUBIN COMPOUNDS AND METHODS THEREOF” (JAWAHARLAL NEHRU CENTRE FOR ADVANCED SCIENTIFIC RESEARCH, priority 2021, published 2024).
